Among the data in patent publication US8791102B2, “Acetanilide sphingosine-1-phosphate receptor antagonists” (Exelixis, Inc., priority 2008, dated 2014) are IC50 values, retold here.

A word on the IC50: it is the concentration that inhibits the measured activity by half.

Where only a bound is given, the exact number is not on record here.

T1 sequence (P21453 whole entry): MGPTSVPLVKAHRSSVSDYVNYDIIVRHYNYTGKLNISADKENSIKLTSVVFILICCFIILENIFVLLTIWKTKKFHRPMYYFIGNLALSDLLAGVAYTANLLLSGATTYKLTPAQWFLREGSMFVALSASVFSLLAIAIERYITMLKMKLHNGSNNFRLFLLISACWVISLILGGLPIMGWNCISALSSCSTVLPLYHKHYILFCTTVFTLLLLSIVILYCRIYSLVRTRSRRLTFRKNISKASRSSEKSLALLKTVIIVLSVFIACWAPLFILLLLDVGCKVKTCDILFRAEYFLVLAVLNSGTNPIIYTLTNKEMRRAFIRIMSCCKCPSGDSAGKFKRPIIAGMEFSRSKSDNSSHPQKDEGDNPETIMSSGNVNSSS

The assay has as its target T1, human S1P1 receptors (Homo sapiens, UniProt P21453).
T1 construct: host or cells: HEK293
The assay is described as follows: S1P1R antagonist assay (fluorescent membrane potential dye, cAMP readout). It counts as cell-based. As to conditions: HEK293 cells expressing human S1P1 receptors and CNG channel; 500 nM NECA; S1P1R agonist 10 nM; 90 minutes; read-out: EC50 or IC50 value.
With `Cc1cc(C(=O)NC(COCc2ccccc2)C(=O)Nc2ccc(Oc3ccccc3)cc2)ccc1Cl` (centres unmarked) [Compound 379, 4-chloro-3-methyl-N-(2-oxo-1-{[(phenylmethyl)oxy]methyl}-2-{[4-(phenyloxy)phenyl]amino}ethyl)benzamide], the IC50 was more than 1 µM.

Take `O=C(CN1CC=CC1)N[C@@H](COCc1ccccc1)C(=O)Nc1ccc(Oc2ccc(F)cc2)cc1` [Compound 214, (S)-3-(benzyloxy)-2-(2-(2,5-dihydro-1H-pyrrol-1-yl)acetamido)-N-(4-(4-fluorophenoxy)phenyl)propanamide]: the IC50 is not above 0.3 µM.

Take `O=C(Nc1ccc(Oc2ccc(F)cc2)cc1)[C@@H]1C[C@@H](Cc2ccc(F)cc2F)CN1C(=O)Cn1cncn1` [Compound 53, (2S,4R)-1-(2-(1H-1,2,4-triazol-1-yl)acetyl)-4-(2,4-difluorobenzyl)-N-(4-(4-fluorophenoxy)phenyl)pyrrolidine-2-carboxamide]: the IC50 is not above 0.3 µM.

Take `COc1ccc(CCC(=O)NC(COCc2ccccc2)C(=O)Nc2ccc(Oc3ccccc3)cc2)cc1OC` (centres unmarked) [Compound 348, N-(2-oxo-1-{[(phenylmethyl)oxy]methyl}-2-{[4-(phenyloxy)phenyl]amino}ethyl)-3-(3,4-dimethoxyphenyl)propanamide]: the IC50 was in the range of 0.3 to 1 µM.

On to `O=C(NC(COCc1ccccc1)C(=O)Nc1ccc(Oc2ccccc2)cc1)c1cnccn1` (centres unmarked) [Compound 351, N-(2-oxo-1-{[(phenylmethyl)oxy]methyl}-2-{[4-(phenyloxy)phenyl]amino}ethyl)pyrazine-2-carboxamide], for which the IC50 was more than 1 µM.

For the compound `O=C(Nc1ccc(Oc2ccc(F)cc2)cc1)[C@@H]1C[C@@H](Cc2ccc(F)cc2)CN1C(=O)Cn1cncn1` [Compound 141, (2S,4R)-1-(2-(1H-1,2,4-triazol-1-yl)acetyl)-4-(4-fluorobenzyl)-N-(4-(4-fluorophenoxy)phenyl)pyrrolidine-2-carboxamide], the 50% inhibitory concentration (IC50) was not above 0.3 µM.

Take `CC1CCN(CC(=O)N[C@@H](COCc2ccccc2)C(=O)Nc2ccc(Oc3ccc(F)cc3)cc2)CC1` [Compound 130, (S)-3-(benzyloxy)-N-(4-(4-fluorophenoxy)phenyl)-2-(2-(4-methylpiperidin-1-yl)acetamido)propanamide]: the IC50 is more than 1 µM.

For the compound `O=C(Nc1ccc(Oc2ccc(F)cc2)cc1)[C@@H]1C[C@@H](Cc2ccccc2)CN1C(=O)Cc1c(Cl)cccc1Cl` [Compound 119, (2S,4R)-4-benzyl-1-(2-(2,6-dichlorophenyl)acetyl)-N-(4-(4-fluorophenoxy)phenyl)pyrrolidine-2-carboxamide], the IC50 was not above 0.3 µM.

As for `CN(C)c1ccc(C(=O)NC(COCc2ccccc2)C(=O)Nc2ccc(Oc3ccccc3)cc2)cc1` (centres unmarked) [Compound 294, 4-(dimethylamino)-N-(2-oxo-1-{[(phenylmethyl)oxy]methyl}-2-{[4-(phenyloxy)phenyl]amino}ethyl)benzamide], the IC50 is more than 1 µM.

Turning to `O=C(Cn1cncn1)N1C[C@H](Cc2ccccc2)C[C@H]1c1nc2cc(Oc3ccc(F)cc3)ccc2[nH]1` [Compound 12, 1-((2S,4R)-4-benzyl-2-(5-(4-fluorophenoxy)-1H-benzo[d]imidazol-2-yl)pyrrolidin-1-yl)-2-(1H-1,2,4-triazol-1-yl)ethanone], the IC50 lay in the range of 0.3 to 1 µM.

In the case of `O=C(Cn1nnc2ccccc21)N[C@@H](COCc1ccccc1)C(=O)Nc1ccc(Oc2ccc(F)cc2)cc1` [Compound 151, (S)-2-(2-(1H-benzo[d][1,2,3]triazol-1-yl)acetamido)-3-(benzyloxy)-N-(4-(4-fluorophenoxy)phenyl)propanamide], the IC50 is not above 0.3 µM.

As for `O=C(CN1CCC(N2CCOCC2)CC1)N[C@@H](COCc1ccccc1)C(=O)Nc1ccc(Oc2ccc(F)cc2)cc1` [Compound 105, (S)-3-(benzyloxy)-N-(4-(4-fluorophenoxy)phenyl)-2-(2-(4-morpholinopiperidin-1-yl)acetamido)propanamide], the IC50 was more than 1 µM.

As for `O=C(Cc1cccnc1)N[C@@H](COCc1ccccc1)C(=O)Nc1ccc(Oc2ccc(F)cc2)cc1` [Compound 247, (S)-3-(benzyloxy)-N-(4-(4-fluorophenoxy)phenyl)-2-(2-(pyridin-3-yl)acetamido)propanamide], the IC50 was not above 0.3 µM.

With `O=C(NC(COCc1ccccc1)C(=O)Nc1ccc(Oc2ccccc2)cc1)c1ccc2[nH]cnc2c1` (centres unmarked) [Compound 342, N-(2-oxo-1-{[(phenylmethyl)oxy]methyl}-2-{[4-(phenyloxy)phenyl]amino}ethyl)-1H-benzimidazole-5-carboxamide], the IC50 was more than 1 µM.

Take `O=C(Cc1cc(Cl)ccc1F)NC(COCc1ccccc1)C(=O)Nc1ccc(Oc2ccccc2)cc1` (centres unmarked) [Compound 192, 3-(benzyloxy)-2-(2-(5-chloro-2-fluorophenyl)acetamido)-N-(4-phenoxyphenyl)propanamide]: the IC50 fell in the range of 0.3 to 1 µM.

For `CC(C)(C(=O)N[C@@H](COCc1ccccc1)C(=O)Nc1ccc(Oc2ccc(F)cc2)cc1)c1c[nH]cn1` [Compound 213, (S)-2-(2-(1H-imidazol-4-yl)-2-methylpropanamido)-3-(benzyloxy)-N-(4-(4-fluorophenoxy)phenyl)propanamide], the IC50 was not above 0.3 µM.

Take `CCOCC(=O)N1C[C@H](Cc2ccccc2)C[C@H]1C(=O)Nc1ccc(Oc2ccc(F)cc2)cc1` [Compound 121, (2S,4R)-4-benzyl-1-(2-ethoxyacetyl)-N-(4-(4-fluorophenoxy)phenyl)pyrrolidine-2-carboxamide]: the IC50 was not above 0.3 µM.

For `O=C(NC(COCc1ccccc1)C(=O)Nc1ccc(Oc2ccccc2)cc1)c1ccco1` (centres unmarked) [Compound 283, N-(2-oxo-1-{[(phenylmethyl)oxy]methyl}-2-{[4-(phenyloxy)phenyl]amino}ethyl)furan-2-carboxamide], the IC50 was more than 1 µM.

On to `O=C(Cc1ccc(Br)cc1)NC(COCc1ccccc1)C(=O)Nc1ccc(Oc2ccccc2)cc1` (centres unmarked) [Compound 390, N-(2-oxo-1-{[(phenylmethyl)oxy]methyl}-2-{[4-(phenyloxy)phenyl]amino}ethyl)-2-(4-bromophenyl)acetamide], for which the IC50 is more than 1 µM.

For the compound `CC(C)(C(=O)N[C@@H](COCc1ccccc1)C(=O)Nc1ccc(Oc2ccc(F)cc2)cc1)n1cncn1` [Compound 255, (S)-3-(benzyloxy)-N-(4-(4-fluorophenoxy)phenyl)-2-(2-methyl-2-(1H-1,2,4-triazol-1-yl)propanamido)propanamide], the IC50 fell in the range of 0.3 to 1 µM.

Consider `O=C(CN1CCCC1)N[C@@H](COCc1ccccc1)C(=O)Nc1ccc(Oc2ccc(F)cc2)cc1` [Compound 215, (S)-3-(benzyloxy)-N-(4-(4-fluorophenoxy)phenyl)-2-(2-(pyrrolidin-1-yl)acetamido)propanamide], for which the IC50 fell in the range of 0.3 to 1 µM.

`COc1ccc(Br)c(C(=O)NC(COCc2ccccc2)C(=O)Nc2ccc(Oc3ccccc3)cc2)c1` (centres unmarked) [Compound 272, 2-bromo-5-(methyloxy)-N-(2-oxo-1-{[(phenylmethyl)oxy]methyl}-2-{[4-(phenyloxy)phenyl]amino}ethyl)benzamide]: the IC50 was more than 1 µM.

Consider `Cc1cccc(C(=O)NC(COCc2ccccc2)C(=O)Nc2ccc(Oc3ccccc3)cc2)c1[N+](=O)[O-]` (centres unmarked) [Compound 189, N-(3-(benzyloxy)-1-oxo-1-(4-phenoxyphenylamino)propan-2-yl)-3-methyl-2-nitrobenzamide], for which the IC50 is 0.3 to 1 µM.
